Results on 1 compound are retold here after patent publication US20160152942A1, “METHOD FOR ISOLATING HIGHLY FURFURAL RESISTANT STRAIN AND STRAIN ISOLATED BY THE METHOD” (priority 2014, published 2016).

What all share (format): cell-based
The test system of one experiment is E. coli. In words: Inhibition of growth by furfural, IC50 (Test Example 2). The following applies: Escherichia coli; against E. coli; read-out: half maximal inhibitory concentration (IC50) of furfural. As for the experimental part:
(§1) The term “IC50” refers to the concentration of the toxic substance required to inhibit the maximum growth of the microorganism by 50%.
(§2) The half maximal inhibitory concentration (IC50) values of furfural were calculated. As a result, the IC50 value against Enterobacter cloacae strain GGT036 [Accession No. KCTC 12672BP]

For experiment [1], the system named is Enterobacter cloacae strain GGT036 [Accession No. KCTC 12672BP]. In words: Inhibition of growth by furfural (Test Example 2). The following applies: for pIC50: LB medium with 1% glucose, 30 °C. As for the experimental part:
as §1
LB media were supplemented with 1% glucose as a carbon source to prepare culture media. To the culture media was added furfural at different concentrations of 20 mM, 40 mM, and 60 mM. The growth rates of the strain in the furfural-containing media were compared with the growth rate of the strain in the furfural-free medium.
After 50 mL of each culture medium was added to an Erlenmeyer flask, Enterobacter cloacae strain GGT036 [Accession No. KCTC 12672BP] was inoculated at an initial OD600 of 1, followed by culture at 30 ° C.
as §2

Experiment [2] relates to E. coli (Comparative Example 1). Kind of experiment: Resistance to furfural, growth by turbidity (Test Example 1). The following applies: 30 mM furfural, LB with 1% glucose, 30 °C, 24 h. As for the experimental part:
(§3) The degrees of growth of Enterobacter cloacae strain GGT036 [Accession No. KCTC 12672BP], E. coli (Comparative Example 1), and Corynebacterium glutamicum (Comparative Example 2) in media containing 30 mM furfural were compared by turbidity measurements to identify the resistance of Enterobacter cloacae strain GGT036 to furfural.
(§4) The media used were LB media supplemented with 1% glucose. An observation was made to determine the dependence of the growth of the strains in the media containing 30 mM furfural (FIG. 2B) and the furfural-free media (FIG. 2A) on the presence or absence of furfural.
(§5) After 7 mL of each medium was added to a glass tube (24 mm), the colonies obtained in Example 1 were inoculated into the medium, followed by culture at 30° C. for 24 h.

Experiment [3] concerns Corynebacterium glutamicum (Comparative Example 2). Described as above. The following applies: 30 mM furfural, LB with 1% glucose, 30 °C, 24 h. As for the experimental part:
as §3, §4, §5

Experiment [4] has as its system Enterobacter cloacae strain GGT036 [Accession No. KCTC 12672BP]. Described as above. The following applies: 30 mM furfural, LB with 1% glucose, 30 °C, 24 h. As for the experimental part:
as §3, §4, §5

The subject of experiment [5] is Corynebacterium glutamicum. In words: Inhibition of growth by furfural, IC50 (Test Example 2). The following applies: against Corynebacterium glutamicum; read-out: half maximal inhibitory concentration (IC50) of furfural.

SMILES strings stand for the structures. pIC50: −log10 of the molar value. Like-named read-outs stand apart in the source and are kept apart here. Bounds are passed on as bounds.

Regarding `O=Cc1ccco1` [furfural], the pIC50 in the experiment on E. coli is 1.60; in experiment [1] (Enterobacter cloacae, read-out: half maximal inhibitory concentration (IC50) of furfural, against Enterobacter cloacae strain GGT036), 1.26 to 1.35; in experiment [1] (read-out: half maximal inhibitory concentration (IC50) of furfural, against Enterobacter cloacae strain GGT036) it was 1.32; in experiment [5] it was 2.00. Moreover, the “OD value of culture” value in experiment [1] (60 mM furfural, after 30 h of culturing, initial OD600 of 1) is recorded as at most 2. For the same compound, in experiment [1] (furfural concentration increasing from 0 mM to 40 mM), the “growth rate of strain” value is “slightly retarded”. The results for the “growth of strain in furfural-containing medium” value in experiment [2], in experiment [3] and in experiment [4] were “not grown”, “not grown” and “cell growth was observed”, respectively.
